# According to US12533357B2, “Treatment for acute myeloid leukemia or myelodysplastic syndrome” (UNIVERSITY HEALTH NETWORK, priority 2019, dated 2026):
# Key:
# [1] = test system: MOLT-4 acute lymphoblastic leukemia xenograft; experiment: MOLT-4 xenograft tumor growth in SCID mice; type: in vivo; conditions: day 13; 0.5 mg/kg IP weekly; p=0.21
# Method: The human acute lymphoblastic leukemia cell line MOLT-4 was acquired from American Type Culture Collection (Manassas, VA, USA) and grown in RPMI medium containing 100 units/mL penicillin G sodium, 100 μg/mL streptomycin sulfate. The media was supplemented with 10% heat-inactivated fetal bovine serum, 2 mM L-glutamine, and 0.11% sodium pyruvate. The tumor cells were maintained in a humidified environment of 5% CO2 and 95% air at 37° C. Cells were verified to be free of mouse pathogens by IMPACT IV PCR analysis (IDEXX RADIL, Colombia, MO, USA) before injection.
# (§1) Female SCID mice were purchased from the Ontario Cancer Institute and received and acclimated at the MaRS-TMDT Animal Resources Centre for 2 weeks prior to the start of the experiment. The mice were fed ad libitum autoclaved water and Rodent Lab Diet (Harlan Teklad LM-485) consisting of 19% crude protein, 5% crude fat, and 5% crude fiber. Mice were housed in microisolator cages and maintained in an environment with a 12-hour light cycle at 20-22° C. and 40-60% humidity. On the day of implantation, MOLT-4 cells were harvested and resuspended with serum free DMEM to a concentration of 1×10^8/mL and each mouse was injected subcutaneously with a volume of 0.1 mL containing 1×10^7 MOLT-4 cells in the right rear flank.
# Animals were dosed Compound (I) via oral gavage in a volume of 10 mL/kg. The animals were dosed with a 2.25 mm×50 mm curved gavage needle affixed to a 1 mL syringe. Vincristine was dosed by IP injection once per week.
# (§2) Toxicity was evaluated by body weight measurements and clinical observations. The mice were observed daily for overt signs of any adverse, treatment related side effects, and clinical signs of toxicity. Acceptable toxicity was set at a group mean body weight loss of less than 20% during the study and not more than one treatment related death in a group. Animals were monitored for body weights and tumor growth where tumor volumes were calculated using the formula: tumor volume=width^2×length/2.
# (§3) The study evaluated Compound (I) fumarate administered by oral gavage for 21 days, either daily at 7.5 mg/kg or 2 days on/5 days off at 13.5 mg/kg, in comparison to the standard-of-care agent vincristine, dosed in 4 weekly intraperitoneal injections of 0.5 mg/kg, in the MOLT-4 […] xenograft model in SCID (severe combined immunodeficiency) mice. Xenografts were established by subcutaneously injecting 1×10^7 tumor cells into the right flank of female SCID mice. Treatment was initiated 9 days following implantation when tumor volumes reached a mean volume of approximately 250 mm^3.
# [2] = test system: MV4-11 acute myeloid leukemia xenograft; experiment: MV4-11 xenograft tumor growth in SCID mice; type: in vivo; conditions: day 13; vincristine 0.5 mg/kg IP weekly; p=0.14
# Method: The human acute myeloid leukemia cell line MV4-11 was acquired from American Type Culture Collection (Manassas, VA, USA) and grown in RPMI medium containing 100 units/mL penicillin G sodium, 100 μg/mL streptomycin sulfate. The media was supplemented with 10% heat-inactivated fetal bovine serum, 2 mM L-glutamine, and 0.11% sodium pyruvate. The tumor cells were maintained in a humidified environment of 5% CO2 and 95% air at 37° C. Cells were verified to be free of mouse pathogens by IMPACT IV PCR analysis (IDEXX RADIL, Colombia, MO, USA) before injection.
# as §1, with “MV4-11” for “MOLT-4”
# Animals were dosed Compound (I) via oral gavage in a volume of 10 ml/kg. The animals were dosed with a 2.25 mm×50 mm curved gavage needle affixed to a 1 ml syringe. Vincristine was dosed by IP injection once per week.
# as §2
# as §3, with “gavage,” for “gavage for 21 days,”, “MV4-11” for “MOLT-4”, “14” for “9”, “90” for “250”, “mm^3. […] Animals were dosed in the 2-on/5-off schedule for 21 days. […] By day 13, the average volume of the control tumors was 878 mm^3, averaging […] tumor growth over the 13 days. On day 13 the average tumor growth inhibition in the vincristine treated arm was 85% (p=0.14).” for “mm^3.”
smiles,measurement,setting,value
"CC[C@]1(O)C[C@H]2CN(CCc3c([nH]c4ccccc34)[C@@](C(=O)OC)(c3cc4c(cc3OC)N(C=O)[C@H]3[C@@](O)(C(=O)OC)[C@H](OC(C)=O)[C@]5(CC)C=CCN6CC[C@]43[C@@H]65)C2)C1 [vincristine, reference compound]",average tumor growth inhibition,[1],18%
same,average tumor growth inhibition,[2],85%
